Measured values: patent US11701341B2, “Use of 3-[5-amino-4-(3-cyanobenzoyl)-pyrazol-1-yl]-n-cyclopropyl-4-methylbenzamide in the treatment of acute exacerbations of chronic obstructive pulmonary disease” (MEREO BIOPHARMA 1 LIMITED, priority 2017, dated 2023)

Columns and labels:
AECOPD = conditions: single oral dose; cited from earlier work
fibrinogen = assay: AETHER exploratory outcome: fibrinogen measured in patient blood; type: in vivo, human; conditions: high and low dose over 5 days; including patients with <2% eosinophils; maximal at Day 7; FIG. 4
From the text: (§1) A Phase 2 trial (referred to as AETHER) was a double-blind, randomised, placebo-controlled clinical study investigating the use of BCT-197, on top of Standard of Care, for the treatment of patients with AECOPD. Standard of Care included the addition of steroids and/or antibiotics to a patient's chronic COPD medication and symptomatic bronchodilators. Following baseline assessment, 282 eligible patients were randomised to receive either two different dose regimens of BCT-197 or placebo (three doses over five days). The primary endpoint was a comparison of change in forced expiratory volume in 1 second (FEV1) from baseline to day 7 within each arm of the study.
(§2) Patients received one of two oral dosing regimens of 3-[5-amino-4-(3-cyanobenzoyl)-pyrazol-1-yl]-N-cyclopropyl-4-methylbenzamide or matching oral placebo administered according to the dosing schedules shown in Table 1.
(§3) A further exploratory outcome included over the treatment period to Day 5 and BCT197 systemic exposure (to Day 14) were the inflammatory biomarkers high sensitivity C-Reactive Protein (hsCRP) and fibrinogen measured in patient blood. […] This was maximal at Day 7 (FIGS. 3 and 4) coincident with the highest improvement in FEV1 (FIG. 2) in response to BCT197 in the same patient population with <2% eosinophils.

patients with AECOPD = assay: Phase 2 trial (AETHER): change in FEV1 from baseline to Day 7, on top of Standard of Care; type: in vivo, human; conditions: for improvement in FEV1 (change from baseline to Day 7): sub-group with blood eosinophils <2%, oral, three doses over five days (Days 1, 3, 5), on top of Standard of Care, FIG. 1, FIG. 2
From the text: as §1
The trial assessed adult patients ≥40 years with an acute exacerbation of COPD (as defined by increase in symptoms of cough, and/or sputum and/or breathlessness that required addition of antibiotics and or systemic corticosteroids to their regular treatment).
Patients received one of two oral dosing regimens of 3-[5-amino-4-(3-cyanobenzoyl)-pyrazol-1-yl]-N-cyclopropyl-4-methylbenzamide or matching oral placebo administered according to the dosing schedules shown in Table 1. […]
Efficacy of treatment was measured by the primary endpoint of change in FEV1 from baseline (before treatment) to Day 7. Patients with COPD and low eosinophils (determined by blood percentages or absolute counts) are considered to be poorly responsive to treatment of acute exacerbations using known treatments.

[1] = test system: high sensitivity C-Reactive Protein (hsCRP); assay: AETHER exploratory outcome: hsCRP measured in patient blood; type: in vivo, human; conditions: high and low dose over 5 days; including patients with <2% eosinophils; maximal at Day 7; FIG. 3
From the text: as §1, §2, §3

Cc1ccc(C(=O)NC2CC2)cc1-n1ncc(C(=O)c2cccc(C#N)c2)c1N [BCT197, 3-[5-Amino-4-(3-cyanobenzoyl)-pyrazol-1-yl]-N-cyclopropyl-4-methylbenzamide]
effect on recovery of AECOPD to the stable disease state (AECOPD): accelerates the recovery to the stable disease state | reduction versus placebo in fibrinogen from baseline (fibrinogen): dose-dependent reduction | relative difference in FEV1 response versus standard of care alone (placebo arm) (patients with AECOPD; >2% eosinophil sub-population, FIG. 1): much less than in the low eosinophil group | improvement in FEV1 (change from baseline to Day 7) (patients with AECOPD): substantial and consistent improvement in FEV1 | improvement in FEV1 (change from baseline to Day 7) (patients with AECOPD; listed as compound A): significant improvement | reduction versus placebo in hsCRP from baseline [1]: dose-dependent reduction
